According to PMC8569553, “An improved assay to measure the phospholipid transfer activity of microsomal triglyceride transport protein” (Journal of Lipid Research, 2021):
Residue numbers refer to the chain shown, from its start.

Assays:
Drosophila MTP (dMTP) = target: T1, Drosophila MTP (dMTP) (Drosophila melanogaster, UniProt Q9VIH3); test: NBD-PE PL transfer assay in Cos-7 lysate, […] lomitapide (partial inhibition); format: cell-based
T1 construct: expressed in Cos-7 cells, lysate
T1 sequence (Q9VIH3 28-886): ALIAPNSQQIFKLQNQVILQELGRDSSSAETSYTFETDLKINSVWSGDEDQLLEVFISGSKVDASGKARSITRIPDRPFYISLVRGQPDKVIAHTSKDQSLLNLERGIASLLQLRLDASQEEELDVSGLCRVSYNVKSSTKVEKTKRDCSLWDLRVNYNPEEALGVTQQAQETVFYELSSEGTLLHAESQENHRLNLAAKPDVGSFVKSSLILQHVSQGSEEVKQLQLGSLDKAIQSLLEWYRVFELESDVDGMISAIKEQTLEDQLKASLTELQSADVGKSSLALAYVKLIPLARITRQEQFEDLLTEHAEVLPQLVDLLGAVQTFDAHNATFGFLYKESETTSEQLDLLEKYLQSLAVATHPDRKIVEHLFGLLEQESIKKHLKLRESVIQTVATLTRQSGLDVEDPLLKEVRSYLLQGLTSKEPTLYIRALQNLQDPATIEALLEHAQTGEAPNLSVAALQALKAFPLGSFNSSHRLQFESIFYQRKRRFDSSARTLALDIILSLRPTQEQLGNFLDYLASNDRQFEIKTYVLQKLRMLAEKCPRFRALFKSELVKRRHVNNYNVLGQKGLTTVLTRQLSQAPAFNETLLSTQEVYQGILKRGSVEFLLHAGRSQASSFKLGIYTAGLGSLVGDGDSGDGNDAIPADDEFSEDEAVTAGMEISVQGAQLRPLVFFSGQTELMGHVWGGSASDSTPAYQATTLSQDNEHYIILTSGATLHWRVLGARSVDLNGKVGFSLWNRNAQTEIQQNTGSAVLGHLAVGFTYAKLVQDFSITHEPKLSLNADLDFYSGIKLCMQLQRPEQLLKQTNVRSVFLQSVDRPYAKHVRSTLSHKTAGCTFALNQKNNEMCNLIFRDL

[1] = target: T2, human microsomal triglyceride transfer protein (hMTP) N649S mutant (Homo sapiens, UniProt P55157, N649S); test: NBD-lipid TAG and PL transfer assay in Cos-7 lysate, […] lomitapide; format: cell-based
T2 construct: gene MTTP; expressed in Cos-7 cells, lysate
T2 sequence (P55157 19-894 N649S): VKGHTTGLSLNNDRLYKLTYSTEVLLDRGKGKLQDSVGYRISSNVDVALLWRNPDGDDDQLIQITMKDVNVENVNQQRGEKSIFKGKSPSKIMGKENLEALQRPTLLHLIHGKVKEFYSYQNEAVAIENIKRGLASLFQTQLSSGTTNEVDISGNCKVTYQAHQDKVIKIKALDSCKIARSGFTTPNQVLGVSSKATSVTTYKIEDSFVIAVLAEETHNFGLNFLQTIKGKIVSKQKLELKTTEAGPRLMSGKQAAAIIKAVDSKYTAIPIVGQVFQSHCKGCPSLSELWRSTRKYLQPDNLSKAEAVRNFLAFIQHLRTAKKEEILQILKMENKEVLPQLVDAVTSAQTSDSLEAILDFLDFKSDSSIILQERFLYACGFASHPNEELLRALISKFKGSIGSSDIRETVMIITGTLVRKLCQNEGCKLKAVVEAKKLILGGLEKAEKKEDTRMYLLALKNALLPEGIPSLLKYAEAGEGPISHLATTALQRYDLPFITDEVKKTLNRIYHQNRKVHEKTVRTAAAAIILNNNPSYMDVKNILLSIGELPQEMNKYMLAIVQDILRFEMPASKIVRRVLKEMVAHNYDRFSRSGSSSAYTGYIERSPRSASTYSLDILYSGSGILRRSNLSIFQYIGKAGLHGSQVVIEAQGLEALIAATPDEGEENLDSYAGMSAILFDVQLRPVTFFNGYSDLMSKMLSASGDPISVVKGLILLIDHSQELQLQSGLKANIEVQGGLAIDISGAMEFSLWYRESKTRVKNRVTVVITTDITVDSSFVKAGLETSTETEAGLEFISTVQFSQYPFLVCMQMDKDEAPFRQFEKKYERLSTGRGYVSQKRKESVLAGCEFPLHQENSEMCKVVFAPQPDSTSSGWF

[2] = target: T3, mouse microsomal triglyceride transfer protein (mMTP) (Mus musculus, UniProt O08601); test: NBD-lipid TAG and PL transfer assay in liver homogenate with Mttp knockout control, […] lomitapide; format: cell-based
T3 construct: gene Mttp; endogenous, liver homogenate
T3 sequence (O08601 22-894): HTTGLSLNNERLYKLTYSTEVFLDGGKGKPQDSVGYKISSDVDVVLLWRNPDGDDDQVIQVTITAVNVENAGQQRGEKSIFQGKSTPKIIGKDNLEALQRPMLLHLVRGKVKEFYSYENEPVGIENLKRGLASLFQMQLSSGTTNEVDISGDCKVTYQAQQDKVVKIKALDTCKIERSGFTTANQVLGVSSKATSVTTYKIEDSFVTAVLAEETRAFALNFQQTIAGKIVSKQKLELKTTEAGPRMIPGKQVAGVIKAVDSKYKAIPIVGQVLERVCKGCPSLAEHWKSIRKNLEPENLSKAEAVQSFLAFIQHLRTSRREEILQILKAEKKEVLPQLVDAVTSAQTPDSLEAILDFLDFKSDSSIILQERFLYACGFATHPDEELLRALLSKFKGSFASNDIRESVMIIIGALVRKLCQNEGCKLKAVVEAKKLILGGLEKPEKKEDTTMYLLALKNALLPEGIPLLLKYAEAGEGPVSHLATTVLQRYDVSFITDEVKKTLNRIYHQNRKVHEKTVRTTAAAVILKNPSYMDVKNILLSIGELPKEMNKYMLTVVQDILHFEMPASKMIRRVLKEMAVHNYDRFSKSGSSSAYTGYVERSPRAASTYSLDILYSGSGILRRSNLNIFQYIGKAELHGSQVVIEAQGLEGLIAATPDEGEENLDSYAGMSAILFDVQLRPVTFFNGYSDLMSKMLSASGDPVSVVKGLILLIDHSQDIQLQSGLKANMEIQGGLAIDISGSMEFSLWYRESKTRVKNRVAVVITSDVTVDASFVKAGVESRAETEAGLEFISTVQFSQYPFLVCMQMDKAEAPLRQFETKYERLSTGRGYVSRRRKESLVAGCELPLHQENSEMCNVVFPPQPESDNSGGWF
T3 sequence (P09103 20-509 partner): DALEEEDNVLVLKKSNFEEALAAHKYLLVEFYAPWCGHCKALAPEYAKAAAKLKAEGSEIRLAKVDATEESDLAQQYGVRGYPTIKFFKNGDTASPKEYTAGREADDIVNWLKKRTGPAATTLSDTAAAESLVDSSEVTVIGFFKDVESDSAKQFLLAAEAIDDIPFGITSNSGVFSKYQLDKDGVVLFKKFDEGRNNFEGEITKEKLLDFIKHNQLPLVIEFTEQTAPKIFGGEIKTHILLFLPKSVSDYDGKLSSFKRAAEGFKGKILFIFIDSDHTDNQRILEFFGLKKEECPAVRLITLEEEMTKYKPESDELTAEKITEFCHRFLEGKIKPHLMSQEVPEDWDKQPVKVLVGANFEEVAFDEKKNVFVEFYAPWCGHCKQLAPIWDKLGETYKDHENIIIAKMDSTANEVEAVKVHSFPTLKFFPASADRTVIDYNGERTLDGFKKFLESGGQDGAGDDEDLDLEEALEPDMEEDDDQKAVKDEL

[3] = target: T4, human microsomal triglyceride transfer protein (hMTP) (Homo sapiens, UniProt P55157); test: fluorescent NBD-lipid vesicle transfer assay (PL and TAG) with purified MTP; format: biochemical
T4 construct: gene MTTP; hMTP-FLAG, purified from Cos-7 cells; with protein disulphide isomerase (PDI, β subunit)
T4 sequence (P55157 19-894): T2 sequence (P55157 19-894 N649S) with S631N

IC50 [3]: 10 nM
Compound: O=C(NC1CCN(CCCCC2(C(=O)NCC(F)(F)F)c3ccccc3-c3ccccc32)CC1)c1ccccc1-c1ccc(C(F)(F)F)cc1 [lomitapide]
NBD-PE PL transfer assay in Cos-7 lysate, 1 μM lomitapide (partial inhibition) (Drosophila MTP (dMTP)): This activity was partially inhibited by lomitapide. | NBD-lipid TAG and PL transfer assay in Cos-7 lysate, 1 μM lomitapide [1]: resulted in significantly lower TAG transfer activity, which was completely inhibited by lomitapide | NBD-lipid TAG and PL transfer assay in liver homogenate with Mttp knockout contr [2]: substantial TAG transfer activity in Mttp^fl/fl liver tissue, and this activity was inhibited by lomitapide
